Among the data in patent US7799775B2, “Pyrimidine derivatives” (ASKA Pharmaceutical Co., Ltd., priority 2004, dated 2010) are inhibition and melting point values, retold here.

The target of data set [1] is T1, human 5-HT1A receptor (Homo sapiens, UniProt P08908).
T1 construct: purchased Packard Bioscience; host or cells: CHO cells (membrane preparation)
T1 sequence (P08908 1-422): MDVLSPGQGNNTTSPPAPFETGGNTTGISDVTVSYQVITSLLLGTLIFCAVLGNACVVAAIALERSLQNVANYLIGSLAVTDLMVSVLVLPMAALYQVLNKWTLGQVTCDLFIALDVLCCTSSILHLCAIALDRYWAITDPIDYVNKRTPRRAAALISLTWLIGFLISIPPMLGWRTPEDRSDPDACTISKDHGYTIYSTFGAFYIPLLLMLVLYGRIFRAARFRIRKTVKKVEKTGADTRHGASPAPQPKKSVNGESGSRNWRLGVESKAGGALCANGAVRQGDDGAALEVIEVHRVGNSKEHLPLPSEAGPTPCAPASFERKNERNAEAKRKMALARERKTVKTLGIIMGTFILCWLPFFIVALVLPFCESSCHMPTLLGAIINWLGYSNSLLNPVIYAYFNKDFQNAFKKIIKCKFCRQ
The experiment in a line: Affinity measurement of the compounds to human 5-HT1A receptor (in vitro), [3H]8-OH-DPAT binding. The settings on record: test compound 100 nmols/L; [3H]8-OH-DPAT 0.25 nmols/L; CHO cell membrane expressing human 5-HT1A receptor; read-out: Percent Inhibition (%) on Each Receptor's Binding at 10^−7M, 5-HT1A. An outline of the steps: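 Membranes from CHO cells expressing human 5-HT1A were incubated 60 min at 27 °C with 0.25 nmol/L [3H]8-OH-DPAT and compound in Tris/MgSO4/EDTA/ascorbate buffer, pH 7.4. Bound radioactivity was collected on PEI-soaked GF/C filters and counted; percent inhibition was corrected for non-specific binding defined with 10 μmol/L 8-OH-DPAT.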

The target in data set [2] is T2, human 5-HT3 receptor (Homo sapiens, UniProt P46098).
T2 construct: purchased BIOLINKS K.K; host or cells: HEK-293 cells (membrane preparation)
T2 sequence (P46098 24-478): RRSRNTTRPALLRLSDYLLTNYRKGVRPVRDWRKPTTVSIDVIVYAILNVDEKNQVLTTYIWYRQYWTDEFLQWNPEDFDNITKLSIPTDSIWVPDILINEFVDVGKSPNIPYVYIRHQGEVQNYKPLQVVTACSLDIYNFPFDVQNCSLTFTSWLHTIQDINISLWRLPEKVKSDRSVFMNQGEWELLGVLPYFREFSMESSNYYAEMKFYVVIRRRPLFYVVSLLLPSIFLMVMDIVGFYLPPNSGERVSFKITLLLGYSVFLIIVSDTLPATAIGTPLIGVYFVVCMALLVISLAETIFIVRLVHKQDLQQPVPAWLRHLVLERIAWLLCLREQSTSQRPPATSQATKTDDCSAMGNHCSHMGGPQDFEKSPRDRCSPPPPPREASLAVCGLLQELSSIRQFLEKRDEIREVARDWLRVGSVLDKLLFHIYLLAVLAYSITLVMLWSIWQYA
The experiment in a line: Measurement of affinity to human 5-HT3 receptor (in vitro), [3H]BRL-43694 binding. The settings on record: test compound 100 nmols/L; [3H]BRL-43694 0.5 nmols/L; HEK-293 cell membrane expressing human 5-HT3 receptor; read-out: Percent Inhibition (%) on Each Receptor's Binding at 10^−7M, 5-HT3. An outline of the steps:
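Membranes from HEK-293 cells expressing the receptor were incubated with 0.5 nmol/L radioligand and compound for 60 min at 25 °C in Tris/MgCl2/EDTA buffer, pH 7.5. Bound radioactivity was collected by filtration and counted. Percent inhibition was corrected for non-specific binding defined with 10 μmol/L tropisetron; compounds were tested at 100 nmol/L.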

The term inhibition denotes the percentage by which the read-out fell short of the control. Usually melting point stands for the temperature, or range, at which the solid turns liquid.

`Cc1sc2nc(SCCCN3CCN(c4ccccn4)CC3)[nH]c(=O)c2c1C` [Example 2-1, 5,6-dimethyl-2-[3-(4-pyridin-2-ylpiperazin-1-yl)propylthio]-3H-thieno[2,3-d]-pyrimidin-4-one]: the melting point lay within 209 to 209.4 °C. Besides, in data set [1], the inhibition at 0.1 µM turned out to be 60.8%. For the same molecule, the inhibition at 0.1 µM in data set [2] amounted to 52.6%.
